Measured values taken from patent US12492208B2, “Crystal of pyrimidine compound” (TAIHO PHARMACEUTICAL CO., LTD., priority 2020, dated 2025).

Assays:
SK-BR-3 cells = assay: Growth inhibitory activity against HER2 expressing cell line; type: cell-based; settings: Homo sapiens, SK-BR-3, 72 h; 3 days, CellTiter-Glo 2.0
Protocol: SK-BR-3 cells as a HER2 overexpressing human breast cancer cell line were suspended in a McCoy's 5a medium (manufactured by Life Technologies) supplemented with 10% fetal bovine serum. The cell suspension was seeded in each well of a 384-well flat-bottom microplate, and was then cultured in a 5% carbon dioxide gas-containing culture vessel at 37° C. for 1 day. Thereafter, the compound (I) obtained according to the method in Synthesis Example 1 was dissolved in DMSO, and the compound was diluted to 500 times the final concentration in DMSO. The compound in the DMSO solution was diluted with DMSO solution or the medium used in the suspension of the cells, and the obtained solution was then added to each well of the culture plate so that the final concentration of DMSO was 0.2%. The obtained mixture was further cultured in the 5% carbon dioxide gas-containing culture vessel at 37° C. for 3 days. After completion of the culture for 3 days in the presence of the compound, the cells were counted using CellTiter-Glo 2.0 (manufactured by Promega), and the growth inhibition percentage was then calculated according to the following equation. The concentration of the compound, in which the growth of the cells can be inhibited by 50%, was defined as IC50 (nM). […]

NCI-N87 cells = assay: Growth inhibitory activity against HER2 expressing cell line (NCI-N87); type: cell-based; settings: Homo sapiens, NCI-N87, 72 h; 3 days, CellTiter-Glo 2.0
Protocol: NCI-N87 cells as a HER2 overexpressing human stomach cancer cell line (American Type Culture Collection, Cat No. ATCC (registered trademark) CRL-5822) were suspended in an RPMI1640 medium (Wako Pure Chemical Industries, Ltd.) supplemented with 10% fetal bovine serum. Subsequently, the cell suspension was seeded in each well of a 96-well flat-bottom microplate, and was then cultured in a 5% carbon dioxide gas-containing culture vessel at 37° C. for 1 day. Thereafter, the compound (I) obtained according to the method in Synthesis Example 1 was dissolved in DMSO, and the compound was diluted to 1000 times the final concentration in DMSO. The compound (I) in the DMSO solution was diluted with the medium used in the suspension of the cells, and the obtained solution was then added to each well of the culture plate, so that the final concentration of DMSO became 0.1%. Regarding a control well, DMSO was diluted with the medium used in the suspension of the cells, and the obtained solution was then added to each well of the culture plate, so that the final concentration of DMSO became 0.1%. […] After completion of the culture for 3 days in the presence of the compound, the cells were counted using CellTiter-Glo 2.0 (manufactured by Promega) in accordance with the protocols recommended by Promega. The growth inhibition percentage was calculated according to the following equation. […]

IC50 (SK-BR-3 cells): 6.6 nM
Structure (SMILES): C=CC(=O)N1C[C@H](n2c(C#CC3CC3)c(C(=O)N[C@H](C)c3ccccc3)c3c(N)ncnc32)C[C@@H]1C [compound (I), 7-((3R,5S)-1-acryloyl-5-methylpyrrolidin-3-yl)-4-amino-6-(cyclopropylethynyl)-N—((R)-1-phenylethyl)-7H-pyrrolo[2,3-d]pyrimidine-5-carboxamide]
IC50 (NCI-N87 cells): 9.9 nM
